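Test compounds were applied to cells in 96-well plates for 48 hours at 5 doses. GI50 = concentration required for 50% inhibition of growth.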 Calls of active or inactive are those of the source. Cut-off read from the data, not from the text of the source: active = GI50 up to about 1.1 µM and inactive = higher.
What was measured:
Assay in all cases: growth of human tumour cells (NCI), 48 h
[1] = tested on: LOX IMVI
[2] = tested on: OVCAR-3
[3] = tested on: RXF 393
[4] = tested on: SK-MEL-28
[5] = tested on: SF-295
[6] = tested on: NCI-H460
[7] = tested on: SK-OV-3
[8] = tested on: TK-10
[9] = tested on: SK-MEL-5
[10] = tested on: Malme-3M
[11] = tested on: A498
[12] = tested on: UO-31
[13] = tested on: PC-3
[14] = tested on: MDA-MB-435
[15] = tested on: SW-620
[16] = tested on: UACC-62
[17] = tested on: HOP-62
[18] = tested on: U-251
[19] = tested on: EKVX
[20] = tested on: BT-549
[21] = tested on: SN12C
[22] = tested on: MOLT-4
[23] = tested on: NCI-H522
[24] = tested on: SR
[25] = tested on: SF-539
[26] = tested on: CAKI-1
[27] = tested on: IGROV-1
[28] = tested on: T47D
[29] = tested on: UACC-257
[30] = tested on: MDA-MB-231
[31] = tested on: K562
[32] = tested on: M14
[33] = tested on: OVCAR-4
[34] = tested on: A549
[35] = tested on: SK-MEL-2
[36] = tested on: COLO 205
[37] = tested on: HT-29
[38] = tested on: HL-60
[39] = tested on: SF-268
[40] = tested on: 786-0
[41] = tested on: MCF7
[42] = tested on: HCT-116
[43] = tested on: DU-145
[44] = tested on: MDA-N
[45] = tested on: NCI-H23
[46] = tested on: SNB-19
[47] = tested on: OVCAR-5
[48] = tested on: HCC 2998
[49] = tested on: NCI-H226
[50] = tested on: KM12
[51] = tested on: CCRF-CEM
[52] = tested on: HCT-15
[53] = tested on: RPMI-8226
[54] = tested on: NCI/ADR-RES
[55] = tested on: OVCAR-8
[56] = tested on: HOP-92
[57] = tested on: ACHN
[58] = tested on: SNB-75
[59] = tested on: Hs-578T

Measured: GI50

COC1(CC[C@@H](C)COC2OC(CO)C(O)C(O)C2O)O[C@H]2C[C@H]3[C@@H]4CC=C5C[C@@H](OC6OC(CO)C(O)C(OC7OC(CO)C(O)C(O)C7O)C6OC6OC(C)C(O)C(O)C6O)CC[C@]5(C)[C@H]4CC[C@]3(C)[C@H]2[C@@H]1C (stereo partly drawn)
active: [30] 0.885 µM
inactive: [1] 2.8 µM | [2] 16.8 µM | [3] 5.71 µM | [4] 5.45 µM | [5] 3.48 µM | [6] 3.4 µM | [7] 4.01 µM | [8] 19.3 µM | [9] 9.84 µM | [10] 3.11 µM | [11] 12.9 µM | [12] 4.5 µM | [13] 6.82 µM | [14] 2.77 µM | [15] 2.6 µM | [16] 3.19 µM | [17] 10.4 µM | [18] 1.89 µM | [19] 15.9 µM | [20] 16.5 µM | [21] 10.2 µM | [22] 16 µM | [23] 4.62 µM | [24] 23.5 µM | [25] 2.74 µM | [26] 6.35 µM | [27] 7.24 µM | [28] 4.67 µM | [29] 11 µM | [31] > 20.6 µM | [32] 2.37 µM | [33] 9.91 µM | [34] 2.68 µM | [35] 13.7 µM | [36] 9.04 µM | [37] 4.67 µM | [38] 6.19 µM | [39] 10.2 µM | [40] 2.75 µM | [41] 16 µM | [42] 6.64 µM | [43] 3.97 µM | [44] 8.63 µM | [45] 14.5 µM | [46] 6.37 µM | [47] 7.67 µM | [48] 3.56 µM | [49] 9.95 µM | [50] 2.08 µM | [51] 28.6 µM | [53] 32.2 µM | [54] 16 µM | [55] 8.77 µM | [56] 2.46 µM | [57] 14.5 µM | [58] 3.33 µM | [59] 8.51 µM
3.28 µM: [52]

O=c1c2c(no[n+]2[O-])c2ccccc2n1-c1ccccc1
2.94 µM: [52]
inactive: [1] 1.69 µM | [2] 12.8 µM | [3] 6.55 µM | [4] 5.46 µM | [5] 14.8 µM | [6] 8.2 µM | [7] 14.6 µM | [8] 17.3 µM | [9] 11.1 µM | [10] 5.7 µM | [11] 15.6 µM | [12] 11.9 µM | [13] 14.3 µM | [14] 5.43 µM | [15] 2.65 µM | [16] 4.05 µM | [17] 15.1 µM | [18] 5.19 µM | [19] 12.6 µM | [20] 3.03 µM | [21] 6.01 µM | [22] 3.03 µM | [23] 1.73 µM | [24] 2.82 µM | [25] 8.26 µM | [26] 2.65 µM | [27] 3.75 µM | [28] 12.9 µM | [29] 13 µM | [30] 12.6 µM | [31] 2.74 µM | [32] 2.65 µM | [33] 6.18 µM | [34] 17.9 µM | [35] 11.8 µM | [36] 12.2 µM | [37] 4.89 µM | [38] 2.12 µM | [39] 8.22 µM | [40] 2.89 µM | [41] 4.57 µM | [42] 2.17 µM | [43] 20.4 µM | [44] 3.4 µM | [45] 2.44 µM | [46] 14.5 µM | [47] 14.8 µM | [48] 10.5 µM | [49] 9.93 µM | [50] 13.9 µM | [51] 2.25 µM | [53] 5.87 µM | [54] 14.6 µM | [55] 6.18 µM | [56] 8.47 µM | [57] 11.4 µM | [58] 10 µM | [59] 18.6 µM

Source: ChEMBL document CHEMBL1201862, “PubChem BioAssay data set” (2004)
